The values that follow are results of earlier work, collected in patent publication US10071054B2, “Econazole composition and methods of treatment therewith” (Exeltis USA Dermatology, Inc., priority 2010, dated 2018).

The conditions of data set [1]: Liao et al., Yao Xue Xue Bao 28 (1):22-7 (1993).
Data set [2] concerns dermatophytes and yeasts. The settings on record: most strains of Epidermophyton floccosum, Microsporum audouinii, M. canis, M. gypseum, Trichophyton mentagrophytes, T. rubrum, T. tonsurans, Candida albicans, Malassezia furfur.

As for `Clc1ccc(CO[C@@H](Cn2ccnc2)c2ccc(Cl)cc2Cl)cc1` [(R)-(−)-econazole], the “antifungal activity of stereoisomer” value in data set [1] is “greater antifungal activity”.

As for `Clc1ccc(COC(Cn2ccnc2)c2ccc(Cl)cc2Cl)cc1` (centres unmarked) [Econazole nitrate], the “activity against dermatophytes and yeasts” value in data set [2] is “shown activity”.
